Source: US20130053323A1, “METHODS AND USE RELATED TO HUMANIN AND HUMANIN-LIKE PEPTIDES” (priority 2009, published 2013)
Entries after “also recorded” stand apart in the source; their conditions may differ.

Key:
[1] = system: IL-6; test: IL-6 ELISA in culture medium of LPS-treated ATDC5 chondrocytes; assay type: cell-based, mice; details: LPS 10 μg/ml 24 hrs; combined Dexa and HNG (10 nM)
Method: Mice chondrocyte cell line ATDC5 (1×10^6), was cultured in DMEM/Ham's F12 (Invitrogen) supplemented with 5% FCS, 10 μg/ml human transferrin and 3×10^−8 M (30 nM) sodium selenite until confluent (day 6), as previously reported (Owen, Miner et al. 2007). Thereafter, differentiation was induced by the addition of insulin (10 μg/ml; Sigma) and ascorbic acid (20 μg/ml) to the maintenance medium (differentiation medium). Incubation was at 37° C. in a humidified atmosphere of 95% air/5% CO2. The culture medium was changed every second day. On day 6, lipopolysacharide (LPS) 10 μg/ml […] Dexa (1 μM) and HNG (10 nM, S14G) were added in DMEM/Ham's F12 only and cells were incubated further 24 hrs. Next day, the cell culture medium was collected and analyzed for Intraleukin-6 (IL-6) cytokine levels by using commercially available ELISA kit (R&D Systems, Minneapolis, Minn.) according to instructions provided from manufacturer.
FIG. 2C. […] Therefore, ATDC5 chondrocytes (mice) were cultured and treated with lipopolysacharide (LPS, 10 μg/ml) for 24 hrs to induce inflammation.

[2] = system: fetal rat metatarsal bones; test: Longitudinal growth of cultured fetal rat metatarsal bones; assay type: cell-based
Method: The three middle metatarsal bone rudiments were dissected out from the paws of 20-day-old embryos (E20) (De Luca, Barnes et al. 2001). After dissection, bones were transferred to 24-well plates, one bone per well and cultured in 0.5 ml phenol-red MEM medium supplemented with 0.2% endotoxin-free fraction BSA, […] β-glycerophosphate, 0.05 mg/ml ascorbic acid and 100 μg/ml penicillin/streptomycin at 37° C. under 5% CO2 in humidified atmosphere. Medium was changed every 2-3 days. Images were captured at days 0, 2, 5, 7, 9 and 12 of culture, using a Hamamatsu C4742-95 digital camera mounted on a Nikon SMZ-U microscope. The Image-Pro plus™ (Media Cybernetics, USA) software was used to measure longitudinal growth. Metatarsal bone growth is expressed as a percentage of the length at the day of dissection (regarded as day 0). Treatment with CT (bortezomib), dexamethasone and/or HNG (S14G) was started 2-4 hours after dissection. All isolated bones were pooled and then randomly divided into the different treatment groups (4 to 6 bones per group). Each experiment was repeated at least 3 times.
The data shown in FIG. 2A indicates novel growth promoting/protective effects of humanin analog HNG (S14G) on longitudinal bone growth in cultured fetal rat metatarsal bones. […] Briefly, fetal rat metatarsal bones were pre-treated with different concentrations (mentioned in the figure) of HNG (S14G), 30 min prior to addition of Dexa. […] (n=4-6 bones/group)
CT (bortezomib) is a cytotoxic drug known to cause critical alterations in cells/tissues and disturb the cellular homeostasis. To test the effect of CT (bortezomib) on chondocytes and longitudinal bone growth, the established in vitro model of fetal rat metatarsal bones was used. These bones were collected as described in material and methods, cultured and treated with different concentrations of CT (bortezomib) under sterile conditions for up to 12 days. […] Apoptosis was analyzed in whole growth plate sections of 12-day cultured rat metatarsal bones (perichondrium excluded) by applying the TUNEL technique to detect DNA fragmentation.
In an attempt to block and prevent the negative effects on growth after CT (bortezomib)-treatment, recently discovered humanin analog HNG (S14G) was tested in vitro in fetal rat metatarsal bones.

[3] = system: medulloblastoma (D-283) xenograft; test: Tumor volume in medulloblastoma xenograft in NMRI nude mice; assay type: in vivo, human; details: bortezomib + HNG i.p., until day 13
Method: Male NMRI nu/nu mice (B&K Scanbur, Sweden or Taconic, Denmark) were xenografted at the age of 4 weeks (BW 18-25 g). The mice were anesthetized with 2% fluothane (Zeneca Ltd, Macclesfield, UK) supplemented with 50% N2O in oxygen. Tumor cells (NB (SH-SY5Y; 20×10^6 cells/side) or MB (D-283; 10×10^6 cells/side) in 0.1 ml medium) were implanted s.c. in the hindlegs of the animal using a 23 G needle. Tumors were measured every other day with a digital caliper, starting when they were palpable. At a tumor volume of 0.1 ml or 0.15 ml the animals were randomized into groups (1. Vehicle without tumors; 2. Vehicle with tumors; 3. HNG (S14G; 1 μg/mice); 4. CT (bortezomib; 0.8 mg/kg or 1 mg/kg); 5. HNG (S14G) 1 μg/mice+CT (bortezomib; 0.8 mg/kg or 1 mg/kg), stratified by their bodyweight and treatment started. Treatment regime was the same as in clinical settings with 2 injections/week; 2 weeks treatment (see FIG. 1, Group 1). HNG (S14G) was injected 40 min before the CT (bortezomib) injection. Tumor volume was calculated by the formula 0.44×length×width×width (Wassberg, Pahlman et al. 1997). […] The animal weight and general appearance were recorded every day throughout the experiments. […] After fixation, femur and tibia were measured with digital calipers and decalcified in 5% EDTA and then paraffin embedded. […]

S14G-HN (MAPRGFSCLLLLTGEIDLPVKRRA) [HNG (S14G)]
effect on the anti-inflammatory effect of Dexa (IL-6 levels) [1]: did not alter the anti-inflammatory effects of Dexa
bone growth by itself ([2]; HNG alone, 100 nM, day 12, vs control): improved bone growth by itself; also recorded: trend to promote bone growth on its own
rescue of the growth of bones ([2]; HNG in combination with 25 nM bortezomib, p<0.001): up to 50%
rescue of growth impairment ([2]; HNG with bortezomib 50 nM and above): not able to rescue the growth impairment
rescue from Dexa-induced growth retardation ([2]; different doses of HNG added 30 min prior to Dexa 1 μM): significantly rescued the bones from Dexa-induced growth retardation
interference with anti-cancer effect of bortezomib (tumor volume) [3]: does not interfere with the anti-cancer effect
